ChEMBL document CHEMBL4130388, “Recent advances of pyrazole-containing derivatives as anti-tubercular agents” (Eur J Med Chem, 2017)
Converted amounts (≈) assume the structure as drawn.

Legend:
[1] = tested on: Mycobacterium tuberculosis; assay: Antitubercular activity against Mycobacterium tuberculosis H37Rv by broth dilution method; format: functional
[2] = tested on: Mycobacterium tuberculosis; assay: Antitubercular activity against Mycobacterium tuberculosis H37Rv; format: functional
[3] = tested on: Mycobacterium tuberculosis; assay: Antitubercular activity against Mycobacterium tuberculosis spec.210; format: functional
[4] = tested on: Mycobacterium tuberculosis; assay: Antitubercular activity against Mycobacterium tuberculosis spec.192; format: functional
[5] = tested on: Mycobacterium tuberculosis; assay: Antitubercular activity against Mycobacterium tuberculosis H37Rv by Lowensteine-Jensen method; format: functional
[6] = tested on: Mycobacterium tuberculosis; assay: Potency index, ratio of pyrazinamide MIC to compound MIC for Mycobacterium tuberculosis H37Rv; format: functional
[7] = tested on: Mycobacterium tuberculosis; assay: Antitubercular activity against Mycobacterium tuberculosis H37Rv ATCC 27294 at 6.25 ug/ml by BACTEC radiometric method relative to control; format: functional
HepG2 = assay: Cytotoxicity against human HepG2 cells; format: cell-based
[8] = tested on: Mycobacterium tuberculosis; assay: Antitubercular activity against Mycobacterium tuberculosis; format: functional
[9] = tested on: Mycobacterium tuberculosis; assay: Growth inhibition of Mycobacterium tuberculosis H37Rv at 62.5 ug/ml by broth dilution method relative to control; format: functional; details: read-out: GI
[10] = tested on: Mycobacterium tuberculosis; assay: Potency index, ratio of pyrazinamide MIC to compound MIC for Mycobacterium tuberculosis; format: functional
[11] = tested on: Mycobacterium tuberculosis; assay: Growth inhibition of Mycobacterium tuberculosis H37Rv ATCC 27294 at 6.25 ug/ml by BACTEC radiometric method relative to control; format: functional; details: read-out: GI

Compound | MIC [2] | MIC [3] [µM] | MIC [4] [µM] | MIC [5] [µg/mL] | further results
CCOC(=O)C1=C(C)NC(=O)NC1c1cn(-c2ccccc2)nc1-c1ccc(F)cc1 (stereo not given) | – | – | – | – | MIC [1]: 0.02 µg/mL (≈ 0.0476 µM)
O=C(Nc1ccccc1)N1CCc2c(cnn2Cc2cn(-c3ccccc3)nn2)C1 | 24.7 to 200 µM | 24.7 to 200 (≈ 9.87 to 79.9 µg/mL) | 24.7 to 200 (≈ 9.87 to 79.9 µg/mL) | – | –
O=C(NCCCn1ncc2ccc([N+](=O)[O-])cc21)N1C(=O)C(Cl)C1c1ccccc1Br (stereo not given) | – | – | – | 6.25 to 50 (≈ 12.3 to 98.7 µM) | –
O=C(NCCCn1ncc2ccc([N+](=O)[O-])cc21)N1C(=O)C(Cl)C1c1ccc([N+](=O)[O-])cc1 (stereo not given) | – | – | – | 6.25 to 50 (≈ 13.2 to 106 µM) | –
Cc1cc(-n2nc(C(=O)NCc3ccc(OC(F)(F)F)cc3)cc2-c2cccnc2)c2cccc(C(F)(F)F)c2n1 | 3.13 µg/mL | – | – | – | Ratio [6]: 16
NNC(=O)c1ccncc1 [ISONIAZID] | 0.03 µg/mL | – | – | 0.2 to 4 (≈ 1.46 to 29.2 µM) | MIC [1]: 0.03 µg/mL (≈ 0.219 µM); MIC99 [7]: 1.86 µM (≈ 0.255 µg/mL)
O=C(Nc1ccccc1)N1CCc2c(cnn2Cc2cn(-c3ccccc3Cl)nn2)C1 | 24.7 to 200 µM | 24.7 to 200 (≈ 10.7 to 86.8 µg/mL) | 24.7 to 200 (≈ 10.7 to 86.8 µg/mL) | – | –
COc1ccccc1C1C(Cl)C(=O)N1C(=O)NCCCn1ncc2ccc([N+](=O)[O-])cc21 (stereo not given) | – | – | – | 6.25 to 50 (≈ 13.7 to 109 µM) | –
COc1cccc(-n2cc(Cn3ncc4c3CCN(C(=O)Nc3ccccc3)C4)nn2)c1 | 24.7 to 200 µM | 24.7 to 200 (≈ 10.6 to 85.9 µg/mL) | 24.7 to 200 (≈ 10.6 to 85.9 µg/mL) | – | –
CC1=NN(C(=O)c2cc(-c3ccc(Cl)cc3)n[nH]2)C(=O)/C1=N\Nc1ccc(Cl)cc1 | 0.6 µg/mL | – | – | – | IC50 (HepG2): 306 µM
Cc1ccc(-n2cc(Cn3ncc4c3CCN(C(=O)Nc3ccccc3)C4)nn2)cc1C | 24.7 to 200 µM | 24.7 to 200 (≈ 10.6 to 85.5 µg/mL) | 24.7 to 200 (≈ 10.6 to 85.5 µg/mL) | – | –
Cc1ccccc1C1C(Cl)C(=O)N1C(=O)NCCCn1ncc2ccc([N+](=O)[O-])cc21 (stereo not given) | – | – | – | 6.25 to 50 (≈ 14.1 to 113 µM) | –
CCOC(=O)C1=C(C)NC(C)=C(C(=O)OCC)C1c1cn(-c2ccccc2)nc1-c1ccc(Br)cc1 | 0.02 µg/mL | – | – | – | –
Nc1nc(-c2ccc(O)cc2)cc(-c2cn(-c3ccccc3)nc2-c2ccc(F)cc2)n1 | – | – | – | – | IC90 [8]: 0.88 µg/mL (≈ 2.08 µM)
O=C(Nc1ccccc1)N1CCc2c(cnn2Cc2cn(-c3ccc([N+](=O)[O-])cc3)nn2)C1 | 24.7 to 200 µM | 24.7 to 200 (≈ 11 to 88.9 µg/mL) | 24.7 to 200 (≈ 11 to 88.9 µg/mL) | – | –
CCOC(=O)C1=C(C)NC(C)=C(C(=O)OCC)C1c1cn(-c2ccccc2)nc1-c1ccc(F)cc1 | 0.02 µg/mL | – | – | – | –

Compound | MIC [2] | MIC [3] [µM] | MIC [4] [µM] | MIC [5] [µg/mL] | further results
O=C(NCCCn1ncc2ccc([N+](=O)[O-])cc21)N1C(=O)C(Cl)C1c1cccc(Cl)c1 (stereo not given) | – | – | – | 6.25 to 50 (≈ 13.5 to 108 µM) | –
O=C(NCCCn1ncc2ccc([N+](=O)[O-])cc21)N1C(=O)C(Cl)C1c1cccc([N+](=O)[O-])c1 (stereo not given) | – | – | – | 6.25 to 50 (≈ 13.2 to 106 µM) | –
O=C(Nc1ccccc1)N1CCc2c(cnn2Cc2cn(-c3ccc(F)c(Cl)c3)nn2)C1 | 24.7 to 200 µM | 24.7 to 200 (≈ 11.2 to 90.4 µg/mL) | 24.7 to 200 (≈ 11.2 to 90.4 µg/mL) | – | –
O=C(NCCCn1ncc2ccc([N+](=O)[O-])cc21)N1C(=O)C(Cl)C1c1ccccc1Cl (stereo not given) | – | – | – | 6.25 to 50 (≈ 13.5 to 108 µM) | –
Cc1cc(-n2nc(C(=O)NCC(F)(F)F)cc2-c2cccnc2)c2cccc(C(F)(F)F)c2n1 | 3.13 µg/mL | – | – | – | Ratio [6]: 16
O=C(Nc1ccccc1)N1CCc2c(cnn2Cc2cn(-c3ccc(Br)c(OC(F)(F)F)c3)nn2)C1 | 24.7 to 200 µM | 24.7 to 200 (≈ 13.9 to 112 µg/mL) | 24.7 to 200 (≈ 13.9 to 112 µg/mL) | – | –
Cc1nn(-c2ccccc2)c2c1C(c1cccc([N+](=O)[O-])c1)c1c(N)nc(=O)[nH]c1O2 (stereo not given) | – | – | – | – | inhibition of growth at 62.5 µg/mL [9]: 98%
O=C(Nc1ccccc1)N1CCc2c(cnn2Cc2cn(-c3ccc(Cl)cc3)nn2)C1 | 24.7 to 200 µM | 24.7 to 200 (≈ 10.7 to 86.8 µg/mL) | 24.7 to 200 (≈ 10.7 to 86.8 µg/mL) | – | –
O=C(Nc1ccccc1)N1CCc2c(cnn2Cc2cn(-c3ccccc3F)nn2)C1 | 24.7 to 200 µM | 24.7 to 200 (≈ 10.3 to 83.5 µg/mL) | 24.7 to 200 (≈ 10.3 to 83.5 µg/mL) | – | –
N#Cc1ccc(-c2nnc(-c3n[nH]cc3-c3ccc(Cl)cc3)o2)cc1 | – | – | – | – | MIC [8]: 25 µg/mL (≈ 71.9 µM); Ratio [10]: 4
CC[C@@H](CO)NCCN[C@@H](CC)CO [ETHAMBUTOL] | 3.13 µg/mL | – | – | 0.2 to 4 (≈ 0.979 to 19.6 µM) | –
COc1nc2ccc(Br)cc2c2c1C(C)(OCC(O)Cn1ccc(-c3ccc(C)c(C)c3)n1)c1ccccc1-2 (stereo not given) | – | – | – | – | inhibition of growth at 6.25 µg/mL [11]: 40 to 88%; MIC99 [7]: 5 µM (≈ 2.92 µg/mL)
O=C(NCCCn1ncc2ccc([N+](=O)[O-])cc21)N1C(=O)C(Cl)C1c1cccc(O)c1 (stereo not given) | – | – | – | 6.25 to 50 (≈ 14.1 to 113 µM) | –
O=C(Nc1ccccc1)N1CCc2c(cnn2Cc2cn(-c3ccccc3[N+](=O)[O-])nn2)C1 | 24.7 to 200 µM | 24.7 to 200 (≈ 11 to 88.9 µg/mL) | 24.7 to 200 (≈ 11 to 88.9 µg/mL) | – | –
O=C(Nc1ccccc1)N1CCc2c(cnn2Cc2cn(-c3ccc(F)c(F)c3)nn2)C1 | 24.7 to 200 µM | 24.7 to 200 (≈ 10.8 to 87.1 µg/mL) | 24.7 to 200 (≈ 10.8 to 87.1 µg/mL) | – | –
O=C(Nc1ccccc1)N1CCc2c(cnn2Cc2cn(-c3cc(Cl)cc(Cl)c3)nn2)C1 | 24.7 to 200 µM | 24.7 to 200 (≈ 11.6 to 93.7 µg/mL) | 24.7 to 200 (≈ 11.6 to 93.7 µg/mL) | – | –
